Data: patent US12297190B2, “Modulators of STING (stimulator of interferon genes)” (PFIZER INC., priority 2019, dated 2025)
Counter-ions that a name gives are not always drawn.

Legend:
R232-STING = R232-STING (Homo sapiens, UniProt Q86WV6, H232R); test: biochemical
STING [1] = target: T1, STING (Homo sapiens, UniProt Q86WV6, G230A/H232R/R293Q/R71H); test: Interferon-β induction: THP-1 Lucia ISG reporter cell line; assay type: cell-based; details: THP-1 Lucia ISG cells, 24 hours incubation, luciferase reporter; read-out: THP-1 Lucia ISG Cells IFN-β EC50
T1 construct: host or cells: THP-1 and THP-1 Lucia ISG cells
T1 sequence (Q86WV6 whole entry R71H/G230A/H232R/R293Q): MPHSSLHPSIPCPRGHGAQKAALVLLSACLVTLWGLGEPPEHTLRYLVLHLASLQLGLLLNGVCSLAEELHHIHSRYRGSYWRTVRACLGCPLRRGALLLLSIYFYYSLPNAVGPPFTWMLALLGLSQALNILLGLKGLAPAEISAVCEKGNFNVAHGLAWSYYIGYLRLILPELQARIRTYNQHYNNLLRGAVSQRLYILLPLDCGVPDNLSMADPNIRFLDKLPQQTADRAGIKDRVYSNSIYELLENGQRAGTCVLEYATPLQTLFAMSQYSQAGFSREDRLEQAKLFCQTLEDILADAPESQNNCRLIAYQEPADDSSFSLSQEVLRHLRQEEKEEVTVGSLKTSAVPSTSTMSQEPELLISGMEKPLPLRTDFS
Description: Interferon-β Induction: THP-1 ISG Reporter Cell Line
THP-1 Lucia™ ISG cells (InvivoGen) express the secreted luciferase “Lucia” reporter gene under the control of an IRF-inducible composite promotor comprised of five interferon response elements. THP-1 Lucia™ ISG cells were grown in RPMI media plus 2 mM L-glutamine, 10% fetal bovine serum, and 0.5% Pen-Strep. Hygromycin B and Zeocin were present to maintain stable transfection. 10^4 cells were seeded in 96-well plates and incubated overnight 37° C., 5% CO2. 50 μL of serial diluted compounds in media (final 0.5% DMSO) was and incubated for an additional 24 hours. After incubation, the plates were centrifuged at 2000 rpm for 10 min. 50 μl of cell culture supernatant of each well was transferred to a white, opaque 96-well plate. One pouch of QUANTI-Luc™ (InvivoGen) powder was prepared in 25 mL of endotoxin-free water and 100 μL of prepared warm QUANTI-Luc solution were added to each well containing the supernatant. The luminescence signal was measured using a Perkin-Elmer Envision microplate reader. Data were normalized to “% effect” with a positive control STING agonist that was known to maximize the luciferase signal and the negative control DMSO.

STING [2] = target: T1, STING; test: Phosphorylation of IRF3: THP-1 cell ELISA; assay type: cell-based; details: THP-1 cells, 3 hours incubation, phospho-IRF3 ELISA; read-out: THP-1 CELL P-IRF3 EC50
Description: Phosphorylation of IRF3: THP-1 Cell ELISA
STING activation results in recruitment of TBK1 and phosphorylation of IRF3 transcription factor before induction of type I interferons. THP-1 cells (InvivoGen) were grown in RPMI media plus 2 mM L-glutamine, 10% fetal bovine serum, and 0.5% Pen-Strep. 10^4 cells were seeded in 96-well plates and incubated overnight 37° C., 5% CO2. Compounds serial diluted compounds in media (final 0.5% DMSO) were added to the cells and incubated for an additional 3 hours. After incubation, the plates were centrifuged at 2000 rpm for 5 min. The cells were then lysed in 100 μl RIPA buffer and vortexed for 30 minutes at room temperature. 25 μl of lysate was then transferred to clear polystyrene High Bind plates that had been previously coated with mouse anti-human IRF-3 capture antibody (BD Pharmigen), and allowed to incubate at 4° C. for 16 hours. The plates were then washed and incubated with rabbit anti-phospho-IRF3 detection antibody (Cell Signaling Technologies) for 1.5 hours at room temperature. Finally, an HRP-linked secondary antibody (Cell Signaling Technologies) was added for 30 min before the Glo Substrate Reagent (R&D Systems) was used generate the luminescent signal. The signal was measured using a Perkin-Elmer Envision microplate reader. Data were normalized to “% effect” with a positive control STING agonist that was known to maximize the phosphorylated IRF3 signal and the negative control was DMSO.

R232-STING, sequence (Q86WV6 155-341 H232R): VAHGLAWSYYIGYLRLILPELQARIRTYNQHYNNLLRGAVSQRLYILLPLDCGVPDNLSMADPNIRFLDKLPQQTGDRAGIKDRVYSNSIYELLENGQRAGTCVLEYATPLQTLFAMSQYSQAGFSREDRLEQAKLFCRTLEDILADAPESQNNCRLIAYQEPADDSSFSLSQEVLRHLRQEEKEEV

SMILES | Ki (R232-STING) [nM] | EC50 (STING [1]) [nM] | EC50 (STING [2]) [nM]
CCn1nc(C)c(F)c1-c1nc(-c2nc(C(N)=O)cc3c2cnn3C)c(CN)s1 [Example S01, 4-[5-(aminomethyl)-2-(1-ethyl-4-fluoro-3-methyl-1H-pyrazol-5-yl)-1,3-thiazol-4-yl]-1-methyl-1H-pyrazolo[4,3-c]pyridine-6-carboxamide] | 11.5 | 2300 | 1300
Cc1nn(CCCN)c(-c2n[nH]c(-c3nc(C(N)=O)cc4c3cnn4C)n2)c1O [Example AH01, 4-{3-[1-(3-aminopropyl)-4-hydroxy-3-methyl-1H-pyrazol-5-yl]-1H-1,2,4-triazol-5-yl}-1-methyl-1H-pyrazolo[4,3-c]pyridine-6-carboxamide] | 184 | 6250 | > 11100
CCn1nc(C)cc1-c1nnc(-c2cc(C(N)=O)cc3c2cnn3CCN2CCC(C#N)CC2)[nH]1 [YY09, 1-[2-(4-cyanopiperidin-1-yl)ethyl]-4-[5-(1-ethyl-3-methyl-1H-pyrazol-5-yl)-4H-1,2,4-triazol-3-yl]-1H-indazole-6-carboxamide] | 141 | > 100000 | > 100000
CCn1nc(C)cc1-c1nnc(-c2cc(C(N)=O)cc3c2cnn3CCCCC2CCNCC2)[nH]1 [YY15, 4-[5-(1-ethyl-3-methyl-1H-pyrazol-5-yl)-4H-1,2,4-triazol-3-yl]-1-[4-(piperidin-4-yl)butyl]-1H-indazole-6-carboxamide] | 329 | > 100000 | > 100000
CCn1nc(C)cc1-c1n[nH]c(-c2cc(C(N)=O)cc3c2cnn3CCN2CC3CCC2CO3)n1 (stereo not drawn) [YY25, 4-[3-(1-ethyl-3-methyl-1H-pyrazol-5-yl)-1H-1,2,4-triazol-5-yl]-1-[2-(2-oxa-5-azabicyclo[2.2.2]octan-5-yl)ethyl]-1H-indazole-6-carboxamide] | 212 | > 33300 | > 33300
CCn1nc(C)cc1-c1nnc(-c2cc(C(N)=O)cc3c2cnn3CCN2CCC(OC)CC2)[nH]1 [YY11, 4-[5-(1-ethyl-3-methyl-1H-pyrazol-5-yl)-4H-1,2,4-triazol-3-yl]-1-[2-(4-methoxypiperidin-1-yl)ethyl]-1H-indazole-6-carboxamide] | 529 | > 100000 | > 100000
CCn1nc(C)cc1-c1nnc(-c2cc(C(N)=O)cc3c2cnn3Cc2nc3c(o2)CNC3)[nH]1 [YY16, 1-[(5,6-dihydro-4H-pyrrolo[3,4-d][1,3]oxazol-2-yl)methyl]-4-[5-(1-ethyl-3-methyl-1H-pyrazol-5-yl)-4H-1,2,4-triazol-3-yl]-1H-indazole-6-carboxamide] | 369 | > 100000 | > 100000
Cc1nn(CCCO)c(-c2nc(-c3nc(C(N)=O)cc4c3cnn4C)c(CN)o2)c1O [Example U03] | 29.8 | 2520 | 2820
CCn1nc(C)c(O)c1-c1nc(-c2nc(C(N)=O)cc3c2cnn3C)c(CN)s1 [Example X01, (4-(6-carbamoyl-1-methyl-1H-pyrazolo[4,3-c]pyridin-4-yl)-2-(1-ethyl-4-hydroxy-3-methyl-1H-pyrazol-5-yl)thiazol-5-yl)methanaminium formate] | 0.6 | 380 | 340
CCn1nc(C)cc1-c1n[nH]c(-c2cc(C(N)=O)cc3c2cnn3CCN2CC3CCC(C2)O3)n1 [Example M03] | 159 | 28500 | 32100
CCn1nc(C)cc1-c1n[nH]c(-c2cc(C(N)=O)cc3c2cnn3CCN(C)CC(F)(F)F)n1 [Example D05, 4-[3-(1-ethyl-3-methyl-1H-pyrazol-5-yl)-1H-1,2,4-triazol-5-yl]-1-{2-[methyl(2,2,2-trifluoroethyl)amino]ethyl}-1H-indazole-6-carboxamide formic acid salt] | 232 | 19900 | 20200
CCn1nc(C)c(O)c1-c1nc(-c2nc(C(N)=O)cc3c2cnn3C)n(C)n1 [Example Q01, 4-[3-(1-ethyl-4-hydroxy-3-methyl-1H-pyrazol-5-yl)-1-methyl-1H-1,2,4-triazol-5-yl]-1-methyl-1H-pyrazolo[4,3-c]pyridine-6-carboxamide] | 3.2 | 140 | 120
CCn1nc(C)cc1-c1n[nH]c(-c2cc(C(N)=O)cc3c2cnn3CCN2C[C@H](C)OC[C@@H]2C)n1 [Example M04] | 306 | 28600 | 28000
CCn1nc(C)cc1-c1n[nH]c(-c2cc(C(N)=O)cc3c2cnn3CCN2CCOC(C)C2)n1 (stereo not drawn) [YY22, 4-[3-(1-ethyl-3-methyl-1H-pyrazol-5-yl)-1H-1,2,4-triazol-5-yl]-1-[2-(2-methylmorpholin-4-yl)ethyl]-1H-indazole-6-carboxamide] | 491 | > 33300 | > 33300
CCn1nc(C)cc1-c1n[nH]c(-c2cc(C(N)=O)cc3c2ccn3C)n1 [Example A02, 4-[3-(1-ethyl-3-methyl-1H-pyrazol-5-yl)-1H-1,2,4-triazol-5-yl]-1-methyl-1H-indole-6-carboxamide] | 29.4 | 7480 | 6680

The remaining lines, values ahead:

Ki (R232-STING) [nM] | EC50 (STING [1]) [nM] | EC50 (STING [2]) [nM] | SMILES
16 | 180 | 170 | CCn1nc(C)cc1-c1n[nH]c(-c2nc(C(N)=O)cc3c2cnn3C)n1 [Example K01, 4-[3-(1-ethyl-3-methyl-1H-pyrazol-5-yl)-1H-1,2,4-triazol-5-yl]-1-methyl-1H-pyrazolo[4,3-c]pyridine-6-carboxamide]
430 | 23200 | 25100 | CCn1nc(C)cc1-c1n[nH]c(-c2cc(C(N)=O)cc3c2cnn3CC)n1 [Example B01, 1-ethyl-4-[3-(1-ethyl-3-methyl-1H-pyrazol-5-yl)-1H-1,2,4-triazol-5-yl]-1H-indazole-6-carboxamide]
109 | > 100000 | > 100000 | CCn1nc(C)cc1-c1nnc(-c2cc(C(N)=O)cc3c2cnn3CCC(=O)O)[nH]1 [YY03, 3-{6-carbamoyl-4-[5-(1-ethyl-3-methyl-1H-pyrazol-5-yl)-4H-1,2,4-triazol-3-yl]-1H-indazol-1-yl}propanoic acid]
501 | 81900 | 77300 | CCn1nc(C)cc1-c1n[nH]c(-c2cc(C(N)=O)cc3c2cnn3CCN2CC(F)C2)n1 [Example M01, 4-[3-(1-ethyl-3-methyl-1H-pyrazol-5-yl)-1H-1,2,4-triazol-5-yl]-1-[2-(3-fluoroazetidin-1-yl)ethyl]-1H-indazole-6-carboxamide trifluoroacetic acid salt]
1.4 | 12300 | 15100 | Cc1cc(-c2nc(-c3nc(C(N)=O)cc4c3cnn4C)n(C)n2)n(CCC(=O)O)n1 [Example C09, 3-{5-[5-(6-carbamoyl-1-methyl-1H-pyrazolo[4,3-c]pyridin-4-yl)-1-methyl-1H-1,2,4-triazol-3-yl]-3-methyl-1H-pyrazol-1-yl}propanoic acid]
8.1 | 8930 | 10900 | Cc1cc(-c2n[nH]c(-c3cc(C(N)=O)cc4c3cnn4C)n2)n(CCC(=O)O)n1 [Example C03, 3-{5-[5-(6-carbamoyl-1-methyl-1H-indazol-4-yl)-1H-1,2,4-triazol-3-yl]-3-methyl-1H-pyrazol-1-yl}propanoic acid]
25.1 | 1020 | 920 | CCn1nc(C)cc1-c1n[nH]c(-c2cc(C(N)=O)cc3c2cnn3C)n1 [Example A01, 4-[3-(1-ethyl-3-methyl-1H-pyrazol-5-yl)-1H-1,2,4-triazol-5-yl]-1-methyl-1H-indazole-6-carboxamide]
> 891 | > 100000 | > 100000 | Cc1cc(-c2n[nH]c(-c3c(F)c(C(N)=O)cc4c3cnn4C)n2)n(CCC(=O)O)n1 [YY21, 3-{5-[5-(6-carbamoyl-5-fluoro-1-methyl-1H-indazol-4-yl)-1H-1,2,4-triazol-3-yl]-3-methyl-1H-pyrazol-1-yl}propanoic acid]
